The text below walks through data of publication PMC11459967 (Antimicrobial Agents and Chemotherapy, 2024).

Structures are written as SMILES. Like-named read-outs stand apart in the source and are kept apart here. Where only a bound is given, the exact number is not on record here.

For series [1], the system named is SARS-CoV-2 Omicron (B.1.1.529). Nature of the series: microbe, parasite or virus in culture. It is filed as cell-based. The settings on record: Severe acute respiratory syndrome coronavirus 2, Vero C1008, 48 h; read-out: EC50 viral high-content imaging assay.
The target of another series is T1, cathepsin B (Homo sapiens, UniProt P07858).
T1 construct: purchased RD Systems 953-CY-010
Nature of the series: Cathepsin B enzymatic assay. Type of series: biochemical. As for the experimental part: Assays contained 0.6 nM cathepsin B (RD Systems: 953-CY-010), 25 µM Z-LR-AMC, and 100 nL of test compound in 100% DMSO in a total of 10 µL of 50 mM MES, pH 5.0, 150 mM NaCl, 0.05% CHAPS, and 5 mM DTT in black low volume 384-well plates. The production of AMC was followed at 5-min intervals at 355 nm excitation and 460 nm emission in an Envision microplate reader (PerkinElmer). Reaction rates were determined by linear regression of the resulting progress curves. Rates were normalized to percent inhibition, where 0% is equal to the rate in the presence enzyme, and 100% is equal to the rate in the absence of enzyme. Nonlinear regression fits of the data to a one-site dose-response curve were performed using XLFit (IDBS).

Series [2] in a line: Mouse liver microsome stability assay. The settings on record: microsomes. The protocol: Test compounds (0.5 µM) were incubated with liver microsomes ([…]) and an NADPH-regenerating system (cofactor solution), and samples were taken at various time points, quenched with an acetonitrile solution containing an internal standard, and then analyzed by liquid chromatography with tandem mass spectrometry (LC-MS/MS). […] For the 0-min time point, 135 µL of acetonitrile (ACN) containing internal standard (IS) was added to the wells of a 0-min plate, followed by the addition of 15 µL of NADPH stock solution (6 mM). All other plates were pre-incubated at 37°C for 5 min. Fifteen microliters of NADPH stock solution (6 mM) was then added to the plates to start the reaction and timing. […] Fifty microliters of supernatant was then transferred from each well into a 96-well sample plate containing 50 µL of ultra-pure water for LC/MS analysis.

The test system of series [3] is SARS-CoV-2 (B.1.1.529/Omicron). The settings on record: for mean reduction in SARS-CoV-2 genomic RNA (E gene) in lung tissue: 1 at 100 mg/kg, PF-332 at 50 mg/kg i.p. b.i.d.
The next series has as its target T2, cathepsin L (Homo sapiens, UniProt P07711).
T2 construct: purchased RD Systems 952-CY-010
Nature of the series: Cathepsin L enzymatic assay. Type of series: biochemical. As for the experimental part:
The assays contained 25 pM cathepsin L (RD Systems: 952-CY-010), 5 µM LR-AMC, 100 nL of test compound in 100% DMSO, in a total of 10 µL of 20 mM potassium phosphate, pH 6.0, 150 mM NaCl, 0.005% Tween20, and 5 mM DTT in black low volume 384-well plates. The production of AMC was followed at 5-min intervals with excitation at 355 nm and emission at 460 nm using an Envision microplate reader (PerkinElmer). Reaction rates were determined by linear regression of the resulting progress curves. […] Nonlinear regression fits of the data to a one-site dose-response curve were performed using XLFit (IDBS).

The subject of series [4] is SARS-CoV-2 Delta (B.1.617). The experiment in a line: microbe, parasite or virus in culture. Type of series: cell-based. The following applies: Severe acute respiratory syndrome coronavirus 2, Vero C1008, 48 h; read-out: EC50 viral high-content imaging assay.
Series [5] concerns SARS-CoV-2 Beta (B.1.351). Nature of the series: microbe, parasite or virus in culture. It is filed as cell-based. The following applies: Severe acute respiratory syndrome coronavirus 2, Vero C1008, 48 h; read-out: EC50 viral high-content imaging assay.
For a further series, the system named is SARS-CoV-2 WT (WA1/2020). Nature of the series: Live virus high-content imaging assay (nucleocapsid expression), WT. It is filed as cell-based. The settings on record: Severe acute respiratory syndrome coronavirus 2, Vero C1008, Vero-E6 cells, 48 h infection, read-out: EC50 viral high-content imaging assay.
The target in a further series is T3, thrombin (Homo sapiens, UniProt P00734).
T3 construct: purchased RD Systems 1473-SE-010
The experiment in a line: Thrombin enzymatic assay. Type of series: biochemical. The protocol:
Assays contained 25 pM thrombin (RD Systems: 1473-SE-010), 25 µM BOC-PVR-AMC, and 100 nL of test compound in 100% DMSO, in a total of 10 µL of 50 mM Tris, pH 7.0, 100 mM NaCl, 10 mM CaCl2, and 0.005% Tween20 in black low volume 384-well plates. The production of AMC was followed at 5-min intervals at 355 nm excitation and 460 nm emission in an Envision microplate reader (PerkinElmer). Reaction rates were determined by linear regression of the resulting progress curves. […] Nonlinear regression fits of the data to a one-site dose-response curve were performed using XLFit (IDBS).

A short description of series [6]: Hamster pharmacokinetics (plasma and lung). Type of series: in vivo. The protocol: Fig 10 […] pharmacokinetics of 1. Mean plasma and lung concentration-time profiles of compound 1 after single i.p. dose at 10 mg/kg in male hamster (N = 3/time point). In-life parameters of compound 1 are provided for plasma and lung.
To monitor pharmacokinetics of compound 1 following single intraperitoneal administration to male hamsters, compound 1 was prepared prior to use in 10% DMSO, 10% Solutol HS 15, plus 80% PBS in a concentration of 2 mg/mL by weighing 19.65 mg of compound 1 into a new vial and then adding 0.982 mL DMSO into the vial containing the compound and vortexing the vial for 2 min. In addition, 0.982 mL Solutol HS 15 was then added into the vial containing the compound, and the vial was vortexed for 2 min. Also, 7.860 mL of PBS was then added into the vial which was further vortexed for 3 min and sonicated for 0.5 min. Male hamsters weighing 89 g–104 g (N = 18) were purchased from Beijing Weitong Lihua Laboratory Animal Co. Ltd. Hamsters were fasted overnight and fed at 4 h post-dosing. The compound was administered 10 mg/kg (5 mL/kg) via intraperitoneal injection. Sampling was done at 0.25, 0.5, 1, 2, 4, and 6 h post dose, six time points, by terminal bleeding for plasma and lung at each time point. Approximately 150 µL blood/time point was collected into the K2EDTA tube via the jugular vein. The blood sample was put on wet ice and centrifuged to obtain a plasma sample (2,000 g, 5 min under 4°C) within 15 min. Lung collection was performed by making a mid-line incision in the animals’ chest and abdomen, the skin was retracted, and the lung was exposed after cutting off the ribs and removing other organs using surgical scissors and forceps. The lung was removed using surgical scissors and then rinsed with cold saline. The lung was placed in screw-top tubes and then stored under −70°C until analysis. Lung tissue was homogenized for 2 min with two volumes (vol/wt) of PBS (pH 7.4) immediately before analysis by LC-MS/MS.

In a further series the target is SARS-CoV-2 Mpro (Severe acute respiratory syndrome coronavirus 2, UniProt P0DTC1). Nature of the series: biochemical. Type of series: biochemical. The settings on record: Mpro enzymatic assay.
Where [7] appears, read: enzyme assay, at least 10-point dose-response curves in duplicate, read-out: CatB IC50.
Where [8] appears, read: enzyme assay, at least 10-point dose-response curves in duplicate, read-out: CatL IC50.
Setting [9] is: enzyme assay, at least 10-point dose-response curves in duplicate, read-out: Thrombin IC50.
[10] abbreviates: single IP dose at 10 mg/kg in male hamster.
The mark [11] stands for this setting: single i.p. dose at 10 mg/kg in male hamster.

T2 sequence (P07711 114-333): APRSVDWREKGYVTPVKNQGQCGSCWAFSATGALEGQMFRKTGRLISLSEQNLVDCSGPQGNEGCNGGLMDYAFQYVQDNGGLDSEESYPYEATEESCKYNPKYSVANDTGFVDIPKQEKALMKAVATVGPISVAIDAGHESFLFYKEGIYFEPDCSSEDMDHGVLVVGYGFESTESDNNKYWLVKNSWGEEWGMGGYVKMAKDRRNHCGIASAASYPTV

As a reminder, the EC50 is the concentration at which the effect is half-maximal. As a reminder, the IC50 is the point on the concentration scale where inhibition reaches its midpoint. A word on the Tmax: it is the time at which the peak concentration occurs. What is called Cmax is the maximum level reached in the sampled fluid or tissue. As to `O=C(CN1C(=O)C(NC(=O)OCc2ccccc2)COc2ccccc21)NC(CC1CCNC1=O)C(=O)COC(=O)c1c(Cl)cccc1Cl` (centres unmarked) [Compound 1], the EC50 in series [1] turned out to be 900 ± 900 nM; in [4], 3000 ± 2400 nM; in series [5] it was 3100 nM; in the series with SARS-CoV-2 WT (WA1/2020), 2100 ± 2100 nM. The IC50 at cathepsin B (as stated in text: no substantial inhibition, read-out: cathepsin B IC50) is greater than 15000 nM; at cathepsin B (setting [7]), 18000 nM; at cathepsin L (as stated in text: no substantial inhibition, read-out: cathepsin L IC50) it was greater than 15000 nM; at cathepsin L (setting [8]), greater than 32000 nM; on thrombin (setting [9]), greater than 32000 nM. Also, the half-life at 0.5 µM in [2] was less than 2 min. Also, the “mean reduction in SARS-CoV-2 sub-genomic RNA (N gene) in lung tissue” value in series [3] ([…], 100 mg/kg i.p. b.i.d., versus vehicle, P = 0.002) amounted to 2.0 log. Further, in [3] ([…], versus vehicle), the “mean reduction in SARS-CoV-2 genomic RNA (E gene) in lung tissue” value came to 0.5 log. Also, the “lung histopathology scores (H&E) compared to vehicle-treated SGH” value in [3] (hamster, in vivo) was “did not observe any significant difference”. For the same compound, the “reduction in SARS-CoV-2 viral titer from lung tissue” value in series [3] (hamster, in vivo) stood at 32.6%. Also, the “toxicities or behavioral abnormalities during dosing” value in [3] (hamster, in vivo) is on record as “no obvious toxicities or behavioral abnormalities”. Further, the Kp in [6] (lung / plasma, single IP dose at 10 mg/kg in male hamster, read-out: AUClung/AUCplasma) was 3.2. In addition, the half-life in [6] (lung, single IP dose at 10 mg/kg in male hamster, read-out: lung T1/2 (converted)) is 48.6 min; in series [6] (plasma, single IP dose at 10 mg/kg in male hamster, read-out: plasma T1/2 (converted)), 44 min. The Tmax came out at 30 min in [6] (lung, single IP dose at 10 mg/kg in male hamster, read-out: lung Tmax) and 15 min in [6] (plasma, single IP dose at 10 mg/kg in male hamster, read-out: plasma Tmax). In [6] (plasma, single IP dose at 10 mg/kg in male hamster), this compound registered a maximum concentration (Cmax) of 990 ng/mL. Further, the AUC(0-inf) in series [6] (plasma, single IP dose at 10 mg/kg in male hamster, read-out: plasma AUCINF) turned out to be 1830 ng·h/mL. For the same compound, in series [6] (plasma, single IP dose at 10 mg/kg in male hamster, read-out: plasma AUClast), the AUC(0-t) was 1820 ng·h/mL. In series [6] (setting [10]), the “lung AUCINF” value stood at 5854 ng·h/g. In addition, in series [6] (setting [10]), the “lung AUClast” value was determined as 5818 ng·h/g. In addition, the “lung Cmax” value in series [6] (setting [10]) turned out to be 3623 ng/g. For the same compound, the “clinical symptoms during the in-life phase” value in [6] (setting [11]) is reported as “no abnormal clinical symptoms observed”. In addition, the “concentration achieved in the lung” value in series [6] (setting [11]) is listed as “about 8 µM”.
With `N[C@H]1COc2ccccc2N(CC(=O)N[C@@H](C[C@@H]2CCNC2=O)C(=O)COC(=O)c2c(Cl)cccc2Cl)C1=O` [Compound 9], in [2] (mouse), the half-life at 0.5 µM was less than 2 min.
As to `COc1cccc2[nH]c(C(=O)N[C@@H](CC(C)C)C(=O)N[C@@H](C[C@@H]3CCNC3=O)C(=O)COC(=O)c3c(Cl)cccc3Cl)cc12` [Compound 18, reference compound], the IC50 came out at 24 ± 7.5 nM on cathepsin B (setting [7]) and 1.8 nM on cathepsin L (setting [8]). For the same compound, the half-life at 0.5 µM in [2] was less than 2 min. On SARS-CoV-2 Mpro, the “time to achieve maximum inhibition” value is listed as no more than 10 min.
Take `O=C(CN1C(=O)[C@@H](NC(=O)c2ccccc2)COc2ccccc21)N[C@@H](C[C@@H]1CCNC1=O)C(=O)COC(=O)c1c(Cl)cccc1Cl` [Compound 19]: the IC50 at cathepsin B (setting [7]) is 13000 nM. Besides, the half-life at 0.5 µM in [2] is less than 2 min.
As to `O=C(CN1C(=O)[C@@H](NC(=O)c2ccc3ccccc3n2)COc2ccccc21)N[C@@H](C[C@@H]1CCNC1=O)C(=O)COC(=O)c1c(Cl)cccc1Cl` [Compound 20], the figures for the IC50 at cathepsin B (setting [7]), on cathepsin L (setting [8]) and at thrombin (setting [9]) were 1800 nM, 23100 nM and greater than 32000 nM, respectively. Also, the half-life at 0.5 µM in series [2] was less than 2 min.
On to `O=C(CN1C(=O)[C@@H](NC(=O)OCc2ccccc2)COc2ccccc21)N[C@@H](C[C@@H]1CCNC1=O)C(=O)COc1cc(C(F)(F)F)nn1-c1ccc(F)cc1` [Compound 21], for which the results for the IC50 on cathepsin B (setting [7]), at cathepsin L (setting [8]) and at thrombin (setting [9]) were 27000 nM, greater than 32000 nM and greater than 32000 nM, respectively.
In the case of `CC(C)C[C@H](NC(=O)OCc1ccccc1)C(=O)N[C@@H](C[C@@H]1CCNC1=O)C(O)S(=O)(=O)O` (some centres unmarked) [GC-376, reference compound], the EC50 in series [1] is 400 ± 500 nM; in [4] it was 600 nM; in the series on SARS-CoV-2 WT (WA1/2020), 300 ± 500 nM. Further, the IC50 against cathepsin B is 37 ± 15 nM; against cathepsin L, 0.05 nM; on thrombin it was greater than 10000 nM.
As for `CC(C)(C)[C@H](NC(=O)C(F)(F)F)C(=O)N1C[C@H]2[C@@H]([C@H]1C(=O)N[C@H](C#N)C[C@@H]1CCNC1=O)C2(C)C` [nirmatrelvir, reference compound], in series [3] ([…], 50 mg/kg i.p. b.i.d., versus vehicle), the “reduction in N sub-genomic RNA in lung tissue” value was found to be 5.2 fold. Besides, in [3] ([…], versus vehicle), the “mean reduction in SARS-CoV-2 genomic RNA (E gene) in lung tissue” value was 3.0 log.
